Paper PMC4490394 (Scientific Reports, 2015)

Tests used:
testosterone = settings: ODM-201-treated patients ref 28; cited from earlier work
orthotopic VCaP tumors = test: Orthotopic VCaP xenograft, tumor growth; format: in vivo, nude mice; settings: 50 mg/kg bid oral, 3 weeks, vs control group
Protocol: (§1) One million VCaP cells in 20 μL of RPMI-1640 medium were orthotopically injected into the dorsal prostate lobes of athymic nude male mice (7 weeks old from Harlan Winkelman, France). Tumor growth was followed by measuring serum PSA (ProStatus™ PSA EQM Kits, Wallac, Finland). […] At autopsy, blood samples were collected by heart puncture, clotted overnight at +4 °C, and centrifuged. For serum testosterone determination, 25-μL aliquots were extracted twice with 2 mL of diethyl ether and evaporated under nitrogen to dryness. The residues were reconstituted in PBS and measured using a standard radioimmunoassay as described previously.

serum testosterone = test: Serum testosterone in intact nude mice bearing orthotopic VCaP tumors; format: in vivo; settings: 50 mg/kg bid oral, 3 weeks
Protocol: as §1

[1] = test system: AR nuclear translocation in HS-HEK293 cells
Protocol: AR overexpressing HS-HEK293 cells immunolabeled with an AR-antibody were imaged either with a high-content screening (HCS) reader (Cellomics ArrayScan HCS VTI reader, Thermo) or with a confocal microscope (LSM780, Zeiss). HS-HEK293 cells in steroid-free assay medium were plated on poly-D-lysine coated microplates (BD) (HCS reader) or on coverslips (confocal imaging). After a 48-hour incubation, the cells were treated with 0.3 (HCS reader) or 1 μM (confocal imaging) of test compounds together with 0.3 nM testosterone for 5 hours. […] Cells were washed, DNA was labeled with DAPI (Sigma, 1 μg//mL), and images were analyzed with a NucTrans. V3 assay algorithm (Thermo). […] Coverslips were mounted with Vectashield containing DAPI (Vector Laboratories).

PSA = settings: chemotherapy-naïve CRPC patients, 700 mg twice daily, ARADES study ref 28; cited from earlier work
H1581 lung cancer cells = test: Viability of AR-negative cells (WST-1); format: cell-based, human; settings: increasing concentrations, 4 days
[2] = Quantitative whole-body autoradiography (QWBA); format: in vivo; settings: rat, compound and its metabolites, data not shown
AR(W741L) = target: T1, AR(W741L) (Homo sapiens, UniProt P10275, W742L)
T1 sequence (P10275 1-920 W742L): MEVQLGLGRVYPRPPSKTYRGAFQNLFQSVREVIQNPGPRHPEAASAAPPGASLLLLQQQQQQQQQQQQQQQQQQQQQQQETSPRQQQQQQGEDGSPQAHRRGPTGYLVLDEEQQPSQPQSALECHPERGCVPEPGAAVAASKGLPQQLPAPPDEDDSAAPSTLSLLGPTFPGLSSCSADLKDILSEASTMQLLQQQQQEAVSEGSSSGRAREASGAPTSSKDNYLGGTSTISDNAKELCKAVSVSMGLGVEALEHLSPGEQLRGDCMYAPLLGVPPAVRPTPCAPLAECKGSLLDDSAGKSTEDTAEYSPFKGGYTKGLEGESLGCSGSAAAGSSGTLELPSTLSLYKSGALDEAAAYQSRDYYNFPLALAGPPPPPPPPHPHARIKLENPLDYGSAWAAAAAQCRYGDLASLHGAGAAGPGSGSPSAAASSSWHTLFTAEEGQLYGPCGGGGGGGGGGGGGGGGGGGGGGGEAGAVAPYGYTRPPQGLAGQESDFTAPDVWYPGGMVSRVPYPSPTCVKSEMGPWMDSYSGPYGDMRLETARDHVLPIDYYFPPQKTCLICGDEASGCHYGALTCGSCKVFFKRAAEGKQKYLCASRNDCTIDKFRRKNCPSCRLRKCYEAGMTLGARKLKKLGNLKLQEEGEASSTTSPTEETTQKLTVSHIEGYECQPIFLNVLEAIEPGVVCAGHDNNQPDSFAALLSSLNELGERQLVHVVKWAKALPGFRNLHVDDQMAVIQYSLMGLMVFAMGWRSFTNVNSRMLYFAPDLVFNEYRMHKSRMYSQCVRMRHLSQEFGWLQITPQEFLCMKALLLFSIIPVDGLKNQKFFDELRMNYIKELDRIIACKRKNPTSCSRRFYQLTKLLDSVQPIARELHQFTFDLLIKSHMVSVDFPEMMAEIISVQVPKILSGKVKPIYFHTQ
Protocol: For one well in a 96-well plate, 190 ng of reporter construct DNA and 10 ng of receptor construct DNA were diluted in Opti-MEM® (Gibco). […] Luciferase activity was measured as described above.

Compound: CC(O)c1cc(C(=O)N[C@@H](C)Cn2ccc(-c3ccc(C#N)c(Cl)c3)n2)[nH]n1 (some centres unmarked) [ODM-201]
- serum testosterone levels in treated patients (testosterone): maintained at castrate levels
- orthotopic VCaP tumor growth (orthotopic VCaP tumors): inhibited tumor growth significantly
- effect on serum testosterone levels (serum testosterone): did not affect
- effect on testosterone-induced nuclear translocation of AR [1]: inhibit
- PSA response (50% or greater decrease), share of patients (PSA): 86%
- effect on viability of H1581 cells (H1581 lung cancer cells): no effect
- access into the brain (QWBA) [2]: very low access
- functional activity (agonist/antagonist) on AR(W741L) (AR(W741L)): full antagonists
